Assays:
[1] = target: T1, Phosphatidylinositol 4,5-bisphosphate 3-kinase catalytic subunit alpha isoform (Homo sapiens, UniProt P42336); assay: Inhibition of recombinant human PI3Kalpha using PIP2/ATP as substrate preincubated for 20 mins followed by substrate addition measured after 80 mins by Kinase-Glo plus assay
[2] = target: T2, Phosphatidylinositol 4,5-bisphosphate 3-kinase catalytic subunit beta isoform (Homo sapiens, UniProt P42338); assay: Inhibition of recombinant human PI3Kbeta using PIP2/ATP as substrate preincubated for 20 mins followed by substrate addition measured after 80 mins by Kinase-Glo plus assay
T2 sequence (P42338 whole entry, canonical isoform): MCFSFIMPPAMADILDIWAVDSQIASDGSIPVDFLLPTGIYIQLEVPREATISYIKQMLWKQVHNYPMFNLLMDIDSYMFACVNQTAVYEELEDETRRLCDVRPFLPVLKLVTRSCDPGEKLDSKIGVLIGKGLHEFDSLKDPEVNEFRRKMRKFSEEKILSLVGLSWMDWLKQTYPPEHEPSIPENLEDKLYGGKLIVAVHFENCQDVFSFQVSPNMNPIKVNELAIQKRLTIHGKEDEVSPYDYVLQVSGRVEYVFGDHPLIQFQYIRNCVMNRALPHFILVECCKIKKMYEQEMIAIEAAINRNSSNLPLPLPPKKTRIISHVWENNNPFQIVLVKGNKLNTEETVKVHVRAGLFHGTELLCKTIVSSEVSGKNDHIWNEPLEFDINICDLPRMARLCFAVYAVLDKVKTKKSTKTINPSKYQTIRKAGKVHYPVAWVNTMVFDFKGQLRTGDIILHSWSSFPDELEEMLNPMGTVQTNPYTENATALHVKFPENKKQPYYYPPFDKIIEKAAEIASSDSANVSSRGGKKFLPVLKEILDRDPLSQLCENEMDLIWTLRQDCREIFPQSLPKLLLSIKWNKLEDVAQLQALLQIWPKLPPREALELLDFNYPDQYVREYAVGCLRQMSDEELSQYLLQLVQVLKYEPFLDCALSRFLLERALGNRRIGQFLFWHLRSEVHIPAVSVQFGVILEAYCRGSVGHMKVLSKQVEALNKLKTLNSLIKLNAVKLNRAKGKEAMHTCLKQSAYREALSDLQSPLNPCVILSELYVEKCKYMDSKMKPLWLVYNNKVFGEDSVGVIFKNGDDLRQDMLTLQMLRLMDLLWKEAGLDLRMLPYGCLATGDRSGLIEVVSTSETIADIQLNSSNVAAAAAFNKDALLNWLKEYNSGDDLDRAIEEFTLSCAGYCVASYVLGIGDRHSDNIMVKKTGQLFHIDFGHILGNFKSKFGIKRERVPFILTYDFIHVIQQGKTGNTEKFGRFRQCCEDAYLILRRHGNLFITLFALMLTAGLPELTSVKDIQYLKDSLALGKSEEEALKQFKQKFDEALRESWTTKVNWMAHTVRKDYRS

[3] = target: Vascular endothelial growth factor receptor 2 (Homo sapiens, UniProt P35968); assay: Inhibition of KDR (unknown origin)
Sequence of Vascular endothelial growth factor receptor 2 (P35968 whole entry, canonical isoform): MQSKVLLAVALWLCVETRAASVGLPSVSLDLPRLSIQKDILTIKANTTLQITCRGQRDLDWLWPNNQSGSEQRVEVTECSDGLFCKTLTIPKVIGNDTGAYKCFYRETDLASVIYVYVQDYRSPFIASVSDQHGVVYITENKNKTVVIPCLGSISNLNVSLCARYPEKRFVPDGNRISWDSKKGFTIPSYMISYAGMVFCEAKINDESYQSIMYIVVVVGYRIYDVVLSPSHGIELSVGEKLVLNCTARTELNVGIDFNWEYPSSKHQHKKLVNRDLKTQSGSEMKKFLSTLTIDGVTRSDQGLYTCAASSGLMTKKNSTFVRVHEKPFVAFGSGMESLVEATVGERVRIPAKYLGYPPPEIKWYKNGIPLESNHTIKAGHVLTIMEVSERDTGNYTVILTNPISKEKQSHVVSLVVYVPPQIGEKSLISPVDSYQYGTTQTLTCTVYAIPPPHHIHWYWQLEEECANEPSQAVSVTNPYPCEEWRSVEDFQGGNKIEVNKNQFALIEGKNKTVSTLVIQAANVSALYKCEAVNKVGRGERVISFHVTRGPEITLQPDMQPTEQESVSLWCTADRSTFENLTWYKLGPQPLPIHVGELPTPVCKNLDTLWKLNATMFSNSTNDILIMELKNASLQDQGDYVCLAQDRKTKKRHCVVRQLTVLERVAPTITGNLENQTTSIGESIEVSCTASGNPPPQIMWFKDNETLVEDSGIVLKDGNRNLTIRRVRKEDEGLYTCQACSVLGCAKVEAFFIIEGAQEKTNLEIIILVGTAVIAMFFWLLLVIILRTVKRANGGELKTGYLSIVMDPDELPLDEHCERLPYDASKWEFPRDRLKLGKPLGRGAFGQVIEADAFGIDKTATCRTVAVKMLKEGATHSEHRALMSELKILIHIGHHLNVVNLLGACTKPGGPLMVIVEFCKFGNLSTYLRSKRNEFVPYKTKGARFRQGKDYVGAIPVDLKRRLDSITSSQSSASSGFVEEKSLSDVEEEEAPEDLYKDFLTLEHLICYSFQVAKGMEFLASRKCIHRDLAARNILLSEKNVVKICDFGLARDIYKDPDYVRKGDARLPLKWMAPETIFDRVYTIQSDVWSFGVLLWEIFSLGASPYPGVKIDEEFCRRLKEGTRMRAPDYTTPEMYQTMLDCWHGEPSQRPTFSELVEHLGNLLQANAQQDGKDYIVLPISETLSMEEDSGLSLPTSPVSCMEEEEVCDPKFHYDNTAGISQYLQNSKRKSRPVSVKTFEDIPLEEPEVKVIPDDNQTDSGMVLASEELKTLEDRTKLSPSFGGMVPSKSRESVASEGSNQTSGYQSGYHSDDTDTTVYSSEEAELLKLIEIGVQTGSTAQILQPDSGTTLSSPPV

[4] = target: T1, Phosphatidylinositol 4,5-bisphosphate 3-kinase catalytic subunit alpha isoform; assay: Inhibition of PI3Kalpha in human BT474 cells assessed as inhibition of Akt phosphorylation at […] after 2 hrs by ELISA; format: cell-based, BT-474
[5] = target: T2, Phosphatidylinositol 4,5-bisphosphate 3-kinase catalytic subunit beta isoform; assay: Inhibition of PI3Kbeta in human MDA-MB-468 cells assessed as inhibition of Akt phosphorylation at Ser-473 after 2 hrs by ELISA; format: cell-based
[6] = Octanol/buffer partition co-efficient, log D of the compound at pH 7.4 after 30 mins by shake-flask method; format: physicochemical
[7] = target: Phosphatidylinositol 4,5-bisphosphate 3-kinase catalytic subunit gamma isoform (Homo sapiens, UniProt P48736); assay: Inhibition of recombinant human PI3Kgamma using PIP2/ATP as substrate preincubated for 20 mins followed by substrate addition measured after 80 mins by Kinase-Glo plus assay
Sequence of Phosphatidylinositol 4,5-bisphosphate 3-kinase catalytic subunit gamma isoform (P48736 whole entry, canonical isoform): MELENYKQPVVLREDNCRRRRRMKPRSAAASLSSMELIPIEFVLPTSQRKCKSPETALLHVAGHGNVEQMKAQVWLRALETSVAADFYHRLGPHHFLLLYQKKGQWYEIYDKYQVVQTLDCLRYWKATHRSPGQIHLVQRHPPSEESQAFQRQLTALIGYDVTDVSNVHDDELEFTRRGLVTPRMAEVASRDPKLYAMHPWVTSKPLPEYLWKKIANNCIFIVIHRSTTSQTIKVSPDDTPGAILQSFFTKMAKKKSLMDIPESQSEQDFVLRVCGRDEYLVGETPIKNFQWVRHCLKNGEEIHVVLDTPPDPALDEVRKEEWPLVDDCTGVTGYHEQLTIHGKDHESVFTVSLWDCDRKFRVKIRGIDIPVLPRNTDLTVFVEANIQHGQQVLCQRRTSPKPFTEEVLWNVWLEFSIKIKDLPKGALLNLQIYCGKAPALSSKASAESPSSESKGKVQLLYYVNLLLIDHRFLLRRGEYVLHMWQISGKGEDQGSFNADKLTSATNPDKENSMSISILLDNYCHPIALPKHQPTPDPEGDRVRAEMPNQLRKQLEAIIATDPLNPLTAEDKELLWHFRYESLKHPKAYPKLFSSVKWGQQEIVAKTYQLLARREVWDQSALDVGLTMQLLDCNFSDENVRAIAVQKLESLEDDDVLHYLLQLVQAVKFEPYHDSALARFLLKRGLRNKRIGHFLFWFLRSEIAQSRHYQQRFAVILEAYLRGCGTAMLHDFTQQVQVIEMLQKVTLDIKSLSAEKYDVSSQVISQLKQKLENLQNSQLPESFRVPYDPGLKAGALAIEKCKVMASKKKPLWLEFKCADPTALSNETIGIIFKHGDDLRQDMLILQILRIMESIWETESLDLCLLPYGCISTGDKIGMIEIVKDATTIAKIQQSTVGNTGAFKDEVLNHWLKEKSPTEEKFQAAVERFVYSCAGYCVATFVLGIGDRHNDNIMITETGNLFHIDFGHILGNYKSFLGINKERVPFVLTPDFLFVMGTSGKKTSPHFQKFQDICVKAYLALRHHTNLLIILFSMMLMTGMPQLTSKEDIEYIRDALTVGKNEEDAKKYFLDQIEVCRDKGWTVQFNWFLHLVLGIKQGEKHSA

[8] = target: T3, Phosphatidylinositol 4,5-bisphosphate 3-kinase catalytic subunit delta isoform (Homo sapiens, UniProt O00329); assay: Inhibition of recombinant human PI3Kdelta using PIP2/ATP as substrate preincubated for 20 mins followed by substrate addition measured after 80 mins by Kinase-Glo plus assay
T3 sequence (O00329 whole entry): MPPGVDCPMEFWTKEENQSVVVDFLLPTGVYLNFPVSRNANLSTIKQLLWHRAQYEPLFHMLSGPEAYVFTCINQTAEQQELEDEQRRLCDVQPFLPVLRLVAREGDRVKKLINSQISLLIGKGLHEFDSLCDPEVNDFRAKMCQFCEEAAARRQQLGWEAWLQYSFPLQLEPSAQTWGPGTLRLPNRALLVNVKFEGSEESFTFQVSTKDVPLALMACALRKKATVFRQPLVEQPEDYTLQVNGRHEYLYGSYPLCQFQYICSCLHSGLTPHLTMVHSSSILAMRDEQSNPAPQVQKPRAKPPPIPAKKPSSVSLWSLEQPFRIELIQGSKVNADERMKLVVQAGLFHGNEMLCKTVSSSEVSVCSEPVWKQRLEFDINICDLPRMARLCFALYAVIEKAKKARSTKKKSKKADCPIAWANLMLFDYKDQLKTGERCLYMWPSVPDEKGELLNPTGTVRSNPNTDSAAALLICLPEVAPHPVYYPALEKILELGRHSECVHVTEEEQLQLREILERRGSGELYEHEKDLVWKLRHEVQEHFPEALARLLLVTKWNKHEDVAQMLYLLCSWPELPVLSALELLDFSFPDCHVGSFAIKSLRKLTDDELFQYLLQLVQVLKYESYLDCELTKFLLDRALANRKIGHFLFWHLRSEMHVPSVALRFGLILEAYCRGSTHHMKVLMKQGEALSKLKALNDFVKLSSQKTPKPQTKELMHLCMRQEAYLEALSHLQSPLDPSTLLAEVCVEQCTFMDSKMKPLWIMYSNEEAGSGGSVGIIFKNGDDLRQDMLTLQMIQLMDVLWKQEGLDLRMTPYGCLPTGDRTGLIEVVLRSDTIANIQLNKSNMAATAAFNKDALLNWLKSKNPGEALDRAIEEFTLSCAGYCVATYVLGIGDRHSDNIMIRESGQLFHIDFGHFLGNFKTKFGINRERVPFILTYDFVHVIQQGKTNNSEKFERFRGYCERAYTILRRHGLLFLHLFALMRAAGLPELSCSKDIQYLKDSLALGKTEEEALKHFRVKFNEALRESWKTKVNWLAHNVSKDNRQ

[9] = target: Serine/threonine-protein kinase mTOR (Homo sapiens, UniProt P42345); assay: Inhibition of m-TOR (unknown origin)
[10] = target: Receptor-interacting serine/threonine-protein kinase 2 (Homo sapiens) (UniProt O43353); assay: Inhibition of RIPK2 (unknown origin) at 1 uM preincubated for 5 mins with enzyme and substrate followed by ATP addition relative to control
[11] = target: Dual specificity tyrosine-phosphorylation-regulated kinase 1A (Homo sapiens) (UniProt Q13627); assay: Inhibition of DYRK1A (unknown origin) at 1 uM preincubated for 5 mins with enzyme and substrate followed by ATP addition relative to control
[12] = target: Glycogen synthase kinase-3 beta (Homo sapiens) (UniProt P49841); assay: Inhibition of GSK-3beta (unknown origin) at 1 uM preincubated for 5 mins with enzyme and substrate followed by ATP addition relative to control
Sequence of Glycogen synthase kinase-3 beta (Homo sapiens) (P49841 whole entry, looked up): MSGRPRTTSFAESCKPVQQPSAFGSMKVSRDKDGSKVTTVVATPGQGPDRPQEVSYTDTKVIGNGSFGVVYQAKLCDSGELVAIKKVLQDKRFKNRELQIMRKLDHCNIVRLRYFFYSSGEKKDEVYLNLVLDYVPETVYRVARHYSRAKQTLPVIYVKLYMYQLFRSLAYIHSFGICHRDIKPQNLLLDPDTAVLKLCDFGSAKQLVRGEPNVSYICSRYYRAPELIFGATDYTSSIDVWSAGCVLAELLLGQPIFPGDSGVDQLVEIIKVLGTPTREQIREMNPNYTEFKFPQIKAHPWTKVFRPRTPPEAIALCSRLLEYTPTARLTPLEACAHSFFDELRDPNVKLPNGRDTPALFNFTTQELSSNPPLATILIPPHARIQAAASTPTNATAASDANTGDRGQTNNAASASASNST

T1 sequence (P42336 whole entry, canonical isoform): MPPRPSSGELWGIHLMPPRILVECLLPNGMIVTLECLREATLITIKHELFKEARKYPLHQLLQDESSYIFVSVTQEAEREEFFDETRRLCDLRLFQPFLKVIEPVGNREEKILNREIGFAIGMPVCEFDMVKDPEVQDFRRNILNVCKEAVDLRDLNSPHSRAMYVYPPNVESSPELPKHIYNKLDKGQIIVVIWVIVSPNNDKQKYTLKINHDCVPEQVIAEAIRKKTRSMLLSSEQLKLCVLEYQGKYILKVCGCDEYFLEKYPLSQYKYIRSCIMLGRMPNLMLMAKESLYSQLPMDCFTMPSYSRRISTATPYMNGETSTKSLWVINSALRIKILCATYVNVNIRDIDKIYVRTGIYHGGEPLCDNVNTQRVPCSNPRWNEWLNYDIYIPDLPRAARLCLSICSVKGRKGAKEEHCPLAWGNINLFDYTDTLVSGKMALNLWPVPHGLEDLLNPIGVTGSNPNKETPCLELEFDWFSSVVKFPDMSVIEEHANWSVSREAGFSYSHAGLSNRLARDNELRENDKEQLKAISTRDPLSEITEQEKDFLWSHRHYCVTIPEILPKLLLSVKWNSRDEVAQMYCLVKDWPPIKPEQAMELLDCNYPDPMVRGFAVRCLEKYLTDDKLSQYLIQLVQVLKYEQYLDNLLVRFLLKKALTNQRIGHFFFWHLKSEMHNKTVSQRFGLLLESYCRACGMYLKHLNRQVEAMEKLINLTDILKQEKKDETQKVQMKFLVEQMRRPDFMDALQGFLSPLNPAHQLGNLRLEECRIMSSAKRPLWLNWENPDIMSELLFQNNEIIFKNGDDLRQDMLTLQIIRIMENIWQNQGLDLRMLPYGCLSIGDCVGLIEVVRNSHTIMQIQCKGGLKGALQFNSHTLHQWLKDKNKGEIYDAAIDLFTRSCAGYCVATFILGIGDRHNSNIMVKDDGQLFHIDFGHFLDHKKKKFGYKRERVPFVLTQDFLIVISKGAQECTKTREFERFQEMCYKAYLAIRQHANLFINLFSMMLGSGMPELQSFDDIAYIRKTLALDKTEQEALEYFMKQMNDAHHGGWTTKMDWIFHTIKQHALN

| SMILES | IC50 [1] [nM] | IC50 [2] [nM] | IC50 [3] [nM] | IC50 [4] [nM] | IC50 [5] [nM] | logD at 0.5 h [6] | IC50 [7] [nM] | IC50 [8] [nM] | IC50 [9] [nM] | inhibition [10] [%] | inhibition [11] [%] | inhibition [12] [%] |
| --- | --- | --- | --- | --- | --- | --- | --- | --- | --- | --- | --- | --- |
| CN(C)CC(=O)N1CCC(c2nc(-c3cnc(N)c(-n4nnc5ccccc54)n3)n(C)n2)CC1 | 29 | 1000 | 9000 | 270 | 6900 | 0.9 | 650 | 17 | 21000 | 60 | 60 | 60 |
| CN(C)CC(=O)N1CCC(c2nc(-c3cnc(N)c(-n4nnc5ccccc54)n3)nn2C)CC1 | 280 | 2400 | 1200 | 3900 | 12000 | 1 | – | – | – | – | – | – |
| CN(C)CC(=O)N1CCC(c2cn(C)c(-c3cnc(N)c(-n4nnc5ccccc54)n3)n2)CC1 | 64 | 1300 | 6600 | 690 | 7900 | 1.3 | – | – | – | – | – | – |

Molecules with a lower IC50 [1], results first:

| IC50 [1] [nM] | IC50 [2] [nM] | IC50 [3] [nM] | IC50 [4] [nM] | IC50 [5] [nM] | logD at 0.5 h [6] | IC50 [7] [nM] | IC50 [8] [nM] | IC50 [9] [nM] | inhibition [10] [%] | inhibition [11] [%] | inhibition [12] [%] | SMILES |
| --- | --- | --- | --- | --- | --- | --- | --- | --- | --- | --- | --- | --- |
| 27 | 1700 | 170 | 250 | 10000 | 1.8 | – | – | – | – | – | – | CN(C)CC(=O)N1CCC(n2ccc(-c3cnc(N)c(-n4nnc5ccccc54)n3)n2)CC1 |
| 21 | 650 | 210 | 140 | 7800 | 1.9 | – | – | – | – | – | – | CN(C)CC(=O)N1CCC(n2ncc(-c3cnc(N)c(-n4nnc5ccccc54)n3)n2)CC1 |
| 16 | 900 | 29 | 58 | 13000 | 1.7 | 280 | 20 | 15000 | – | – | – | CN(C)CC(=O)N1CCC(n2cc(-c3cnc(N)c(-n4nnc5ccccc54)n3)cn2)CC1 |
| 6 | 380 | 90 | 91 | 4300 | 1.8 | – | – | – | – | – | – | CN(C)CC(=O)N1CCC(c2cc(-c3cnc(N)c(-n4nnc5ccccc54)n3)n(C)n2)CC1 |
